From US20140004108A1, “Methods for Modulation of Autophagy Through the Modulation of Autophagy-Enhancing Gene Products” (HARVARD MEDICAL SCHOOL, priority 2009, published 2014)
“Also recorded” adds a separate entry of the source.

What was measured:
Format in all cases: cell-based, human
LC3 = experiment: Western blot of autophagy markers (LC3 II, p62, Atg12-Atg5); conditions: for autophagy by LC3 western blot (LC3 II/tubulin ratio): 100 ng/mL IGF1, 50 ng/mL FGF2, LIF or CLCF1, 10 μg/mL E64d, with or without 50 nM rapamycin pre-treatment
Experimental: (§1) For the cytokine assays, cells were seeded at 0.5×10^5 in full medium in either 24-well (western) or 96-well (LC3-GFP quantification) plates. After 24 hours, cells were washed in PBS and serum-free OPTIMEM™ medium (Invitrogen) was added along with the indicated growth factors and/or cytokines for an additional 24 hours. Growth factors and cytokines used include human TNFα (Cell Sciences), human LIF (GeneScript Corporation), human FGF2 (ProSpec), human IGF1 (ProSpec), human SDF1 (Prospec) and human CLCF1 (R&D Systems). To induce starvation, cells were cultured for 24 hours in full media, washed in PBS and cultured for additional 4 hours in HBSS media (Invitrogen).
(§2) For western blot analysis, lysosomal protease inhibitor E64d (Sigma) was added at a concentration of 10 μg/mL for the last 8-12 hours before cell lysis.
(§3) For western blots, cells were lysed in Lammeli sample buffer, resolved on a 10-12% SDS-PAGE gel and transferred to PVDF membrane. The following antibodies were used: LC3 (Novus), p62 (Pharmigen), phospho-S6K (Thr389), phospho-Akt (Ser473), phospho-Stat3 (Tyr705), RelA, Sod1, phospho-PTEN (Ser380/Thr382/383) (all Cell Signaling), Bcl-2 (Santa Cruz), all at 1:1000, phospho-S6 (Ser235/236) (Cell Signaling) and phospho-ERK 1/2 (Sigma) at 1:2000, tubulin (Sigma) at 1:5000. Where indicated, blots were quantified using NIH ImageJ64 software.

[1] = system: H4 cells stably expressing LC3-GFP; experiment: LC3-GFP translocation to autophagosomes, image-based autophagy assay; conditions: for autophagy as measured by LC3-GFP translocation: H4 LC3-GFP cells grown in serum-free medium, treated with cytokine
Experimental: (§4) H4 human neuroblastoma cells were cultured under standard tissue culture conditions in DMEM media supplemented with 10% normal calf serum, penicillin/streptomycin, sodium pyruvate (Invitrogen) and, where appropriate, 0.4-1.2 mg/mL G418. LC3-GFP and FYVE-dsRed H4 cells were generated as described in Zhang et al., PNAS, 102, 15545-15550 ([…]). To create a stable line expressing Lamp1, H4 cells were transfected with Lamp1-RFP plasmid using TRANSIT_LT1® transfection reagent (Mirus), followed by selection with 0.4 mg/mL G418. Bcl-2 expressing cell lines were created by infecting LC3-GFP and FYVE-dsRed H4 cells with pBabe-Bcl-2 retrovirus, followed by selection with 1 μg/mL puromycin.
as §1, §2
For the primary screens, an arrayed library of 21,121 siRNA pools covering the majority of the human genome were used (Dharmacon siARRAY™ siRNA library (Human Genome, G-005000-05), Thermo Fisher Scientific, Lafayette, Colo.). Each pool contained of 4 unique oligonucleotides targeting different sequences from the same gene. Each assay plate also included the following controls: non-targeting siRNA, mTOR siRNA, ATG5 siRNA and PLK1 siRNA (a transfection efficiency control). siRNAs were transiently transfected in triplicate into H4 cells stably expressing a LC3-GFP reporter at a final concentration of 40 nM using reverse transfection with the […]® reagent (Qiagen). […]® reagent was diluted 1:20 in DMEM and 8 μl of the mixture was added to wells of 384 well plates. The plates were centrifuged at 1,000 rpm, after which 2 μl of 1 μM arrayed siRNA pools were added to each well. After 30 minutes of incubation, 500 cells in 40 μl of media were added to the wells. Cells were incubated for 72 hours under standard culture conditions, counterstained with 0.5 μM Hoechst 33342 (Invitrogen) for 1 hour and fixed by addition of 30 μl of 8% paraformaldehyde. After 30 minutes, cells were washed 3 times with PBS prior to analysis.
For secondary screens, a siRNA library was used in which the 4 siRNAs of each siRNA pool were separated into individual wells. The cells were transfected and treated as in the primary screen, except that siRNAs were used at a final concentration of 30 nM (1.5 μL/well of 1 uM stock) and […]® reagent was diluted 1:30 in OPTIMEM™ (Invitrogen). The secondary screen transfections were done in 2 rounds: in the first one a 1:1 mixture of H4 cells stably expressing LC3-GFP with FYVE-dsRed was transfected in triplicate; in the second round a 1:1 mixture of H4 cells expressing LC3-GFP with Lamp1-RFP was transfected in duplicate. All tertiary characterization screens were done in duplicate using a mixture of LC3-GFP and FYVE-dsRed cells. Each assay plate included 10-12 wells of non-targeting siRNA as well as mTOR, ATG5, PLK1 and, depending on screen, Vps34 or SOD1 siRNA controls.
(§5) For high-throughput screens, cells were imaged on an automated CellWoRx microscope (Applied Precision) at 10× magnification using 2 wavelengths (350 nm to detect Hoechst, 488 nm to detect LC3-GFP) for the primary screens and 3 wavelengths (350 nm, 488 nm and 550 nm to detect Lamp1-RFP or FYVE-dsRed) for the secondary screens.

type III PI3 kinase = experiment: FYVE-dsRed vesicle recruitment (PtdIns3P levels); conditions: FYVE-dsRed cells, 3MA 10 mM 8 hours or NAC
Experimental: as §4, §5

GRP78 and GRP94 = experiment: In-cell-western of KDEL (GRP78/GRP94) expression, ER stress; conditions: H4 cells
Experimental: For quantitative analysis of mTORC1 signaling and induction of endoplasmic reticulum stress, in-cell-western analysis of rpS6 phosphorylation and KDEL (GRP78/GRP94) expression (‘KDEL’ disclosed as SEQ ID NO: 2), respectively, were performed. H4 cells were cultured in 384-well plates and fixed and counterstained as described for the LC3-GFP assay. Following imaging, the cells were permeabilized in PBS containing 0.2% Tx-100 and stained with ALEXA FLOUR®—680NHS-ester, a non-specific lysine reactive probe used to measure relative cell number, at 20 ng/mL for 15 minutes. Subsequently, the cells were washed with PBS containing 0.2% Tx-100 and incubated for 30 minutes in blocking buffer (LICOR® Blocking Buffer diluted 1:1 with PBS+0.2% Tx-100). Cells were then incubated overnight with a rabbit-anti-rpS6 phospho-235/236 (Cell Signaling Technologies), or mouse-anti-KDEL (Stressgen) antibody (‘KDEL’ disclosed as SEQ ID NO: 2) diluted 1:1000 in blocking buffer. […] The intensities of both, the rpS6 phospho-235/236 or KDEL staining (‘KDEL’ disclosed as SEQ ID NO: 2), and of NHS-ester staining were integrated, and the normalized phospho-S6 or KDEL score (‘KDEL’ disclosed as SEQ ID NO: 2) were calculated by dividing phospho-rpS6 or KDEL intensity (‘KDEL’ disclosed as SEQ ID NO: 2) by NHS-ester intensity. […]

H4 cells = experiment: Western blot of signalling phosphorylation (phospho-ERK1/2, RSK, Stat3, Akt, Foxo3a, S6K); conditions: for activating phosphorylation of Stat3: H4, 50 ng/mL LIF or CLCF1
Experimental: as §1, §3

## N#CC(=C(/N)Sc1ccccc1N)/C(C#N)=C(/N)Sc1ccccc1N [UO126, reference compound]
LC3; H4, serum-free, 50 ng/mL FGF2, 10 μg/mL E64d, pre-treatment with UO126
  inhibition of autophagy by FGF2, effect of MEK inhibitor: attenuated inhibition of autophagy; also recorded: prevented

## CC(=O)N[C@@H](CS)C(=O)O [NAC, N-acetyl-L-cysteine, reference compound]
[1]; H4 LC3-GFP, with antioxidant NAC 2.5 mM
  induction of autophagy caused by knock-down of Sod1: significantly attenuated induction of autophagy
Type III PI3 kinase
  Aβ-induced accumulation of PtdIns3P in presence of inhibitor or antioxidant: suppressed

## tunicamycin [reference compound]
GRP78 and GRP94
  levels of GRP78 and GRP94 (ER stress markers): dose-dependent up-regulation of GRP78 and GRP94
[1]; H4 cells
  autophagy after ER stress inducer: increase in autophagy

## TNFα
LC3; H4 cells, low levels of TNFα (5 ng/ml, FIG. 31B)
  p62 level by western blot: significant accumulation of p62
[1]; H4 LC3-GFP cells in defined medium, higher doses of TNFα
  autophagy (LC3-GFP), higher doses: up-regulation of autophagy
[1]; H4 LC3-GFP cells in defined medium, low doses of TNFα
  autophagy (LC3-GFP), low doses: down-regulation of autophagy

## FGF2: human FGF2 (ProSpec); fibroblast growth factor 2 (basic)
LC3; H4, serum-free
  autophagy by LC3 western blot (LC3 II/tubulin ratio): able to suppress autophagy in the absence and presence of rapamycin
H4 cells; H4, serum-free, 50 ng/mL FGF2
  phospho-ERK1/2 and phospho-RSK levels: increased level of phospho-ERK1/2 and phospho-RSK
[1]
  autophagy as measured by LC3-GFP translocation: significant down-regulation of autophagy

## IGF1: human IGF1 (ProSpec); insulin-like growth factor 1
LC3; H4, serum-free
  autophagy by LC3 western blot (LC3 II/tubulin ratio): able to suppress autophagy in the absence and presence of rapamycin
H4 cells; in both the absence and presence of rapamycin, 100 ng/mL IGF1
  phosphorylation of Akt and Foxo3a: increased
[1]
  autophagy as measured by LC3-GFP translocation: significant down-regulation of autophagy

## O=c1[nH]c2ccccc2n1C1CCN(Cc2ccc(-c3nc4cc5[nH]cnc5cc4nc3-c3ccccc3)cc2)CC1 [Akt inhibitor VIII, reference compound]
LC3; 100 ng/mL IGF1, LC3 western
  inhibition of autophagy by IGF1, effect of Akt inhibitor: prevented inhibition of autophagy by IGF1
H4 cells; IGF1-treated cells with Akt inhibitor VIII
  phosphorylation of Foxo3a and S6 kinase: attenuated phosphorylation of both Foxo3a and the mTORC1 target S6 kinase

## LIF: human LIF (GeneScript Corporation); leukemia inhibitory factor
LC3; H4, serum-free
  autophagy by LC3 western blot (LC3 II/tubulin ratio): able to suppress autophagy in the absence and presence of rapamycin
H4 cells
  activating phosphorylation of Stat3: increased activating phosphorylation of Stat3
[1]
  autophagy as measured by LC3-GFP translocation: significant down-regulation of autophagy

## SDF1: human SDF1 (Prospec); chemokine SDF1 (CXCL12)
[1]
  autophagy as measured by LC3-GFP translocation: significant down-regulation of autophagy

B1: CLCF1: human CLCF1 (R&D Systems); cardiotrophin-like cytokine factor 1 (protein, UniProt Q9UBD9 28-225, looked up)
Cardiotrophin-like cytokine …: LNRTGDPGPGPSIQKTYDLTRYLEHQLRSLAGTYLNYLGPPFNEPDFNPPRLGAETLPRATVDLEVWRSLNDKLRLTQNYEAYSHLLCYLRGLNRQAATAELRRSLAHFCTSLQGLLGSIAGVMAALGYPLPQPLPGTEPTWTPGPAHSDFLQKMDDFWLLKELQTWLWRSAKDFNRLKKKMQPPAAAVTLHLGAHGF
LC3; H4, serum-free
  autophagy by LC3 western blot (LC3 II/tubulin ratio): able to suppress autophagy in the absence and presence of rapamycin
H4 cells
  activating phosphorylation of Stat3: increased activating phosphorylation of Stat3
[1]
  autophagy as measured by LC3-GFP translocation: significant down-regulation of autophagy
